Read-outs that look alike come from different tables or passages of the source.
What was measured:
[1] = bronchial asthma treatment; cited from earlier work
[2] = tested on: reagin-mediated rat Passive Cutaneous Anaphylaxis (PCA); experiment: reagin-mediated rat Passive Cutaneous Anaphylaxis (PCA) screening test; format: in vivo, rat (Sprague-Dawley)
Experimental: The reagin-mediated rat Passive Cutaneous Anaphylaxis (PCA) screening test used to evaluate the present compounds is generally regarded as one of the best animal models for use in predicting the antiallergy activity of test compounds in man. Briefly, the method consists of passive sensitization of skin sites on the test animals with reaginic antibodies followed after 24 hours by administration of the test drug and antigen challenge. The allergic response is measured by use of Evans' blue dye and is evaluated by the spot diameter at the injection site. Details of the test are provided below.
A substituted ovalbumin antigen is used both as immunogen and challenging antigen. The antigen is prepared as follows: 500 mg. ovalbumin (EA) and 500 mg. K2 CO3 are dissolved in 25 ml. distilled H2 O and stirred at room temperature for 5 minutes. Five hundred (500) mg. dinitrobenzene sulfonic acid, Na^+ salt, (previously recrystallized from hot absolute ethanol) is then added slowly with continued stirring. The reaction mixture is then immediately placed in the dark and allowed to proceed for 2 hours with constant stirring. After 2 hours the mixture is placed in suitable dialysis tubing and dialyzed against 5 changes (4 liters each) of distilled H2 O at 5° C. After dialysis the product is lyophilized and stored at room temperature in a brown or amber container. The antigen obtained will appear as a light yellow, amorphous solid which is very soluble in water or saline. It is designated as DNP denatured ovalbumin (DNP-d EA).
Adult, male Sprague-Dawley rats are used as a source of reagin-rich antisera for the PCA model. Immunization is by a combination of DNP-d EA on Al (OH)3 gel and B. pertussis vaccine. Preparation of the DNP-d EA - gel immunogen is as follows: Dissolve the DNP-d EA in TBS so as to give a concentration of 10 mg./ml. Slowly add 1 ml. of this solution to 10 ml. Al(OH)3 gel (10 mg. solids/ml.) with constant stirring at room temperature. Stir the mixture an additional 30 minutes to insure a uniform adsorption of antigen on gel.
The resulting preparation is then used in combination with phase I B. pertussis vaccine to immunize male S/D rats as follows: For each rat administer 0.1 ml. DNP-d EA - gel suspension intramuscularly in each hind leg (200 μg DNP-d EA and 2 mg. gel total dose). Follow these injections by the intraperitoneal administration of 1.0 ml. B. pertussis vaccine (10-20 × 10^9 organisms). The use of light ether anesthesia during this procedure is recommended to insure proper intramuscular and intraperitoneal injections. Nine days following immunization (but no longer than 10) the animals are exsanguinated by cardiac puncture or abdominal aorta cannulation under ether or pentobarbital anesthesia. The collected whole blood is allowed to clot, the serum separated by centrifugation and the individual serum samples stored frozen until assayed for IgE content.
Individual serum samples should be screened for reaginic antibody concentration before being pooled with other sera, as not all rats respond to immunization procedures with reagin production. A 1:50 saline dilution of serum from each immunized rat is used for this purpose. Intradermal injections of 0.05 ml. of the diluted sera are made in the shaven backs of two small female recipient rats, 100-120 gms. Several serum samples can be tested simultaneously in recipient animals. After a 24 to 48 hour latent period antigen challenge is accomplished by […] administration to each rat of 1 mg. DNP-d EA in 0.5 ml. 0.5% Evans' blue dye in saline. Sera which show positive PCA reactions at the 1:50 dilution, as measured 20 to 30 minutes post-challenge are pooled, dispensed in small aliquots and stored at -70° C. or lower until used. Negative sera may be discarded.
The IgE titer of the antisera pool should then be determined. […]

[3] = tested on: release of mediators, e.g. histamine and SRS-A; conditions: administered to asthmatic patients prior to inhalation of specific antigens; cited from earlier work
[4] = cited from earlier work
[5] = po, Table I, p.o., 10 minutes prior to antigen challenge, esters suspended in Tween/CMC, read-out: ID50 (dose of compound that inhibits 50% of the response), ethyl esters, p.o.
[6] = iv, Table II, i.v., 1-5 minutes prior to antigen challenge, acids solubilized in aqueous sodium bicarbonate, read-out: ID50 (dose of compound that inhibits 50% of the response), 5-carboxylic acids, i.v.
[7] = po, Table II, p.o., 10 minutes prior to antigen challenge, acids solubilized in aqueous sodium bicarbonate, read-out: ID50 (dose of compound that inhibits 50% of the response), 5-carboxylic acids, p.o.

Compound | ED50 [2, 5] [mg/kg] | ED50 [2, 7] [mg/kg] | other results
CC(C)NCC(O)c1ccc(O)c(O)c1 (stereo not drawn) [isoproterenol] |  |  | side effects [1]: undesirable side effects, e.g. cardiac stimulation and gastrointestinal distress
CCOC(=O)c1cnc(-c2ccccc2OCC2CC2)[nH]c1=O [Example 18, Ethyl 1,6-dihydro-6-oxo-2-(2-cyclopropylmethoxyphenyl)pyrimidine-5-carboxylate] | ~0.3 |  | 
CCCOc1ccccc1-c1ncc(C(=O)OCC)c(=O)[nH]1 [Example 5, Ethyl 1,6-dihydro-6-oxo-2-(2-n-propoxyphenyl)pyrimidine-5-carboxylate] | ~5 |  | 
CCOc1ccccc1-c1ncc(C(=O)O)c(=O)[nH]1 [Example 20, 1,6-Dihydro-6-oxo-2-(2-ethoxyphenyl)pyrimidine-5-carboxylic acid] |  | 0.5 | ED50 [2, 6]: 0.07 mg/kg
CCOC(=O)c1cnc(-c2cc(N)ccc2OCC)[nH]c1=O [Example 17, Ethyl 1,6-dihydro-6-oxo-2-(5-amino-2-ethoxyphenyl)pyrimidine-5-carboxylate] | 0.5 |  | 
CCCOc1ccccc1-c1ncc(C(=O)O)c(=O)[nH]1 [Example 21, 1,6-Dihydro-6-oxo-2-(2-n-propoxyphenyl)pyrimidine-5-carboxylic acid] |  | 0.9 | ED50 [2, 6]: ~0.1 mg/kg
CCOc1ccc(OC)cc1-c1ncc(C(=O)O)c(=O)[nH]1 [Example 24G, 1,6-Dihydro-6-oxo-2-(2-ethoxy-5-methoxyphenyl)pyrimidine-5-carboxylic acid] |  | 0.2 | 
CCCOc1ccc(OC)cc1-c1ncc(C(=O)OCC)c(=O)[nH]1 [Example 19, Ethyl 1,6-dihydro-6-oxo-2-(5-methoxy-2-n-propoxyphenyl)-pyrimidine-5-carboxylate] | 0.7 |  | 
CCOc1ccc(Cl)cc1-c1ncc(C(=O)O)c(=O)[nH]1 [Example 24E, 1,6-Dihydro-6-oxo-2-(5-chloro-2-ethoxyphenyl)pyrimidine-5-carboxylic acid] |  | 0.5 | 
C=CCOc1ccccc1-c1ncc(C(=O)O)c(=O)[nH]1 [Example 24A, 1,6-Dihydro-6-oxo-2-(2-allyloxyphenyl)pyrimidine-5-carboxylic acid] |  | 0.5 | 
CCOC(=O)c1cnc(-c2ccccc2OC(C)C)[nH]c1=O [Example 7, Ethyl 1,6-dihydro-6-oxo-2-(2-isopropoxyphenyl)pyrimidine-5-carboxylate] | ~2 |  | 
CCOC(=O)c1cnc(-c2cc(OC)ccc2OC)[nH]c1=O [Example 15A, Ethyl 1,6-dihydro-6-oxo-2-(2,5-dimethoxyphenyl)pyrimidine-5-carboxylate] | 5 |  | 
CCOC(=O)c1cnc(-c2cc(OC)ccc2OCC)[nH]c1=O [Example 15C, Ethyl 1,6-dihydro-6-oxo-2-(2-ethoxy-5-methoxyphenyl)pyrimidine-5-carboxylate] | 0.3 |  | 
O=C(O)c1cc(=O)c2c(OCC(O)COc3cccc4oc(C(=O)O)cc(=O)c34)cccc2o1 [DSCG, Disodium cromoglycate, reference compound] | > 30 | > 30 | inhibition of release of mediators [3]: inhibits the release of mediators, e.g. histamine and SRS-A; oral absorption [4]: not orally absorbed; ED50 ([2]; iv, Table I, i.v., compound dosed at time of challenge, solubilized in saline, read-out: ID50, DSCG, i.v. (Table I)): 0.3 mg/kg
CNC[C@H](O)c1ccc(O)c(O)c1 [epinephrine] |  |  | side effects [1]: undesirable side effects, e.g. cardiac stimulation and gastrointestinal distress
CCOc1ccc(N(C)C)cc1-c1ncc(C(=O)O)c(=O)[nH]1 [Example 26, 1,6-Dihydro-6-oxo-2-(5-dimethylamino-2-ethoxyphenyl)pyrimidine-5-carboxylicacid] |  | 0.3 | 

Compound | ED50 [2, 5] [mg/kg] | ED50 [2, 7] [mg/kg] | other results
CCOC(=O)c1cnc(-c2ccccc2OC(C)CC)[nH]c1=O (racemic) [Example 10, Ethyl (±)-1,6-dihydro-6-oxo-2-(2-sec-butoxyphenyl)pyrimidine-5-carboxylate] | 0.5 |  | 
C=CCOc1ccccc1-c1ncc(C(=O)OCC)c(=O)[nH]1 [Example 8, Ethyl 1,6-dihydro-6-oxo-2-(2-allyloxyphenyl)pyrimidine-5-carboxylate] | 0.5 |  | 
CN1[C@@H]2CC[C@H]1C[C@@H](OC(=O)C(CO)c1ccccc1)C2 (stereo partly drawn) [atropine] |  |  | side effects [1]: undesirable side effects, e.g. cardiac stimulation and gastrointestinal distress
CCOC(=O)c1cnc(-c2cc(Cl)ccc2OCC)[nH]c1=O [Example 15B, Ethyl 1,6-dihydro-6-oxo-2-(5-chloro-2-ethoxyphenyl)pyrimidine-5-carboxylate] | ~0.5 |  | 
CCCOc1ccc(OC)cc1-c1ncc(C(=O)O)c(=O)[nH]1 [Example 27, 1,6-Dihydro-6-oxo-2-(5-methoxy-2-n-propoxyphenyl)pyrimidine-5-carboxylic acid] |  | 0.3 | 
O=C(O)c1cnc(-c2ccccc2OCC2CC2)[nH]c1=O [Example 25, 1,6-Dihydro-6-oxo-2-(2-cyclopropylmethoxyphenyl)pyrimidine-5-carboxylic acid] |  | ~0.1 | 
CCOC(=O)c1ccc(OCC)c(-c2ncc(C(=O)OCC)c(=O)[nH]2)c1 [Example 16, Ethyl 1,6-dihydro-6-oxo-2-(5-carbethoxy-2-ethoxyphenyl)pyrimidine-5-carboxylate] | 1 |  | 
CCOc1ccc(N)cc1-c1ncc(C(=O)O)c(=O)[nH]1 [Example 24F, 1,6-Dihydro-6-oxo-2-(5-amino-2-ethoxyphenyl)pyrimidine-5-carboxylic acid] |  | 0.9 | 
CCOC(=O)c1cnc(-c2ccccc2OCC(C)C)[nH]c1=O [Example 12, Ethyl 1,6-dihydro-6-oxo-2-(2-isobutoxyphenyl)pyrimidine-5-carboxylate] | ~3 |  | 
CCCCOc1ccccc1-c1ncc(C(=O)O)c(=O)[nH]1 [Example 23, 1,6-Dihydro-6-oxo-2-(2-n-butoxyphenyl)pyrimidine-5-carboxylic acid] |  | 0.5 | 
CC(C)Oc1ccccc1-c1ncc(C(=O)O)c(=O)[nH]1 [Example 22, 1,6-Dihydro-6-oxo-2-(2-isopropoxyphenyl)pyrimidine-5-carboxylic acid] |  | 0.8 | 
CC(C)COc1ccccc1-c1ncc(C(=O)O)c(=O)[nH]1 [Example 24C, 1,6-Dihydro-6-oxo-2-(2-isobutoxyphenyl)pyrimidine-5-carboxylic acid] |  | 0.5 | 
CCOC(=O)c1cnc(-c2ccccc2OCC)[nH]c1=O [Example 1, Ethyl 1,6-dihydro-6-oxo-2-(2-ethoxyphenyl)pyrimidine-5-carboxylate] | ~2 |  | ED50 ([2]; iv, Table I, i.v., 1-5 minutes prior to antigen challenge, esters suspended in Tween/CMC, read-out: ID50 (dose of compound that inhibits 50% of the response), ethyl esters, i.v.): 0.4 mg/kg
COc1ccc(OC)c(-c2ncc(C(=O)O)c(=O)[nH]2)c1 [Example 24D, 1,6-Dihydro-6-oxo-2-(2,5-dimethoxyphenyl)pyrimidine-5-carboxylic acid] |  | 1 | 
CCC(C)Oc1ccccc1-c1ncc(C(=O)O)c(=O)[nH]1 (racemic) [Example 24B, (±)-1,6-Dihydro-6-oxo-2-(2-sec-butoxyphenyl)pyrimidine-5-carboxylic acid] |  | 0.5 | 
CCCCOc1ccccc1-c1ncc(C(=O)OCC)c(=O)[nH]1 [Example 9, Ethyl 1,6-dihydro-6-oxo-2-(2-n-butoxyphenyl)pyrimidine-5-carboxylate] | 0.5 |  | 

— patent US4031093A, “1,6-Dihydro-6-oxo-2-(ortho-substituted phenyl)pyrimidine-5-carboxylic acid derivatives” (priority 1976, dated 1977)
